Data on one compound can be found in US20240269296A1, “ANTIOXIDANT NUCLEOLIPID PRODRUG, PHARMACEUTICAL COMPOSITION FOR ADMINISTRATION THEREOF, AND THERAPEUTIC USES THEREOF” (UNIVERSITE DE BORDEAUX, priority 2021, published 2024).

In the test the test system is keratinocytes. Kind of test: Antioxidant effect on keratinocytes: ROS by flow cytometry with CM-H2DCFDA after solar simulator irradiation. Conditions: 2nd experiment: incubation 48 h, 0.5% w/v in the culture medium. It counts as cell-based. From the text: The assessment of the antioxidant effect of the compositions C3 and C4 according to the invention has been based on the dosage of the amount of reactive oxygen species (ROS) produced in the medium by flow cytometry, after setting the cells treated with these compositions in presence with the oxidative stress indicator CM-H2DCFDA (5-(and-6)-chlorométhyl-2′,7′-dichlorodihydrofluorescein diacetate, acetyl ester) (Invitrogen®). By cleavage of its acetate groups with esterases and its intracellular oxidation by the ROS, this non-fluorescent indicator is converted into highly-fluorescent dichlorofluorescein 2′,7′ (DCF). Thus, the measurement of the fluorescence intensity allows deducing the amount of DCF, and consequently of ROS, in the cell medium. […]
Afterwards, the cells have been detached by tryptinisation by means of trypsin at 0.0025% and EDTA at 0.01% for 10 min at 37° C., neutralised by fetal calf serum at 10% and separated from the medium by centrifugation. […] Afterwards, the fluorescence has been read by a flow cytometer Accuri® 6.
The obtained results, expressed in % of mean fluorescence intensity (MFI) with respect to the non-irradiated (and without C4) control condition, are shown in FIG. 11. […]

Molecules are shown by their SMILES.

As for `Cc1c(C)c2c(c(C)c1O)CC[C@@](C)(CCC[C@H](C)CCC[C@H](C)CCCC(C)C)O2` [α-tocopherol], the “production of ROS (% of mean fluorescence intensity vs non-irradiated control)” value is reported as “strongly inhibits the production of ROS”.
